Data on 15 molecules can be found in patent US20140107109A1, “AMINO-DIHYDROTHIAZINE AND AMINO-DIOXIDO DIHYDROTHIAZINE COMPOUNDS AS BETA-SECRETASE ANTAGONISTS AND METHODS OF USE” (Amgen Inc., priority 2012, published 2014).

Read-outs that look alike come from different tables or passages of the source.

The test system of data set [1] is Abeta 40 in cerebrospinal fluid (CSF) and brain. The experiment in a line: In vivo inhibition of beta-secretase: Abeta 40 reduction in CSF and brain of the rat. Conditions: 10 mpk (unless otherwise noted), after 4 hrs. An excerpt:
In Vivo Inhibition of Beta-Secretase
Several animal models, including mouse, rat, dog, and monkey, may be used to screen for inhibition of beta-secretase activity in vivo following administration of a test compound sample. Animals used in this invention can be wild type, transgenic, or gene knockout animals. […] One to twenty-four hours following the administration of compound, animals are sacrificed, and brains as well as cerebrospinal fluid (CSF) and plasma are removed for analysis of A-beta levels and drug or test compound concentrations (Dovey et al., 2001, Journal of Neurochemistry, 76, 173-181) Beginning at time 0, animals are administered by oral gavage, or other means of delivery such as intravenous injection, an inhibitory test compound of up to 100 mg/kg in a standard, conventional formulation, such as 2% hydroxypropyl methylcellulose, 1% Tween80. A separate group of animals receive 2% hydroxypropyl methylcellulose, 1% Tween80 alone, containing no test compound, and serve as a vehicle-control group. […] CSF or brain supernatants are then analyzed for the presence of A-beta peptide by specific sandwich ELISA assays based on ECL (Electrochemiluminescence) technology. For example, rat Abeta40 is measured using biotinylated-4G8 (Signet) as a capture antibody and Fab40 (an in-house antibody specific to the C-terminal of Abeta40) as a detection antibody.

In data set [2] the test system is Aβ40 in conditioned medium of cells stably expressing Amyloid Precursor Protein (APP). The experiment in a line: In vitro BACE cell-based assay (HEK cell assay), Aβ40 sandwich ELISA. A digest of the protocol: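 APP-stably expressing cells (40K/well, grown 24 h in DMEM/10% FBS) were treated 24 h with compounds in 10-point dose response starting at 100 μM or 10 μM, 0.1% DMSO final. Secreted Aβ40 was measured by sandwich ELISA (pAb40 capture, biotinylated 6E10 detection, europium time-resolved fluorescence); IC50 from percent inhibition.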

In a further data set the target is T1, Cathepsin D (Cat D) (Homo sapiens, UniProt P07339).
T1 construct: Recombinant Cat D was expressed in CHO cells; made in house; host or cells: CHO cells
The data set is described as follows: In vitro enzymatic Cathepsin D (Cat D) FRET assay. The settings on record: read-out: CatD IC50. Type of data set: biochemical. A digest of the protocol:
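Recombinant Cat D expressed in CHO cells, used at 9 nM and pre-incubated one hour with serially diluted inhibitor in DMSO. Peptide substrate carries a fluorophore and quencher flanking the cleavage site; reaction stopped with Tris buffer raising pH to neutrality, then fluorescence read.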

Data set [3] addresses Beta Secretase enzyme (BACE1) (Homo sapiens, UniProt P56817). The data set is described as follows: In vitro enzymatic BACE FRET assay. Type of data set: biochemical. Conditions: read-out: BACE1 FRET assay IC50. A digest of the protocol:
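BACE1 cleavage of a 50 nM fluorophore/quencher peptide FRET substrate ran for one hour in 0.05 M acetate pH 4.2, 10% DMSO, 100 uM genapol. Tris buffer raised pH to neutrality to stop the reaction before fluorescence was read (excitation 488 nm, […]).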

Another data set concerns Aβ in lumbar CSF. Conditions: Ph I clinical trial; cited from earlier work.
The conditions of data set [4]: people brought in after termination of the Ph I dosing trial; cited from earlier work.
Data set [5] relates to pigment epithelium of the rat's eye. Conditions: higher compound dose given for three months; cited from earlier work.
The mark [6] stands for this setting: Homo sapiens, HEK293, average IC50, HEK cells.

Beta Secretase enzyme (BACE1), sequence (P56817 46-501): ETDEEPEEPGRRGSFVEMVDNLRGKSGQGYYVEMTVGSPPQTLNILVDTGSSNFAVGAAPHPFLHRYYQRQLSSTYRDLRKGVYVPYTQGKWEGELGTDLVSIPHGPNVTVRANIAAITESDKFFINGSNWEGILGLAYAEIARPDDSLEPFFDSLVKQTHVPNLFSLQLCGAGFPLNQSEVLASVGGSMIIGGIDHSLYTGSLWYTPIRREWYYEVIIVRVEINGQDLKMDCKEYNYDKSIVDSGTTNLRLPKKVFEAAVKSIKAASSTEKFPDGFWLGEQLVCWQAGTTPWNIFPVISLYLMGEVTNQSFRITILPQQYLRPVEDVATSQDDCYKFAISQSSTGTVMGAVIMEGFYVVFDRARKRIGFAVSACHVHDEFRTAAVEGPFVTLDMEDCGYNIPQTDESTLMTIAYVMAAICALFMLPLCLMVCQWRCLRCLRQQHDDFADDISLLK
T1 sequence (P07339 65-412, species assumed): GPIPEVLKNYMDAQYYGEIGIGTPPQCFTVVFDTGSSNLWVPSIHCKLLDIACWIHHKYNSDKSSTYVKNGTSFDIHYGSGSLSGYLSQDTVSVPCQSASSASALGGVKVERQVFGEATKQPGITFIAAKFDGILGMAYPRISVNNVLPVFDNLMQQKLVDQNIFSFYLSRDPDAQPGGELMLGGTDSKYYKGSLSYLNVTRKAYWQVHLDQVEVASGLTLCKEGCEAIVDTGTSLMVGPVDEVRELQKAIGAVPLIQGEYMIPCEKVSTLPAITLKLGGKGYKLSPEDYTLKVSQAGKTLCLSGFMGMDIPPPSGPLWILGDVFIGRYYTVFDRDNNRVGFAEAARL

`COc1cnc(C(=O)Nc2ccc(F)c([C@]34COC[C@H]3S(=O)(=O)C(C)(C)C(N)=N4)c2)c(C)c1` [Example 430, N-(3-((4aS,7aS)-3-amino-2,2-dimethyl-1,1-dioxido-7,7a-dihydro-2H-furo[3,4-b][1,4]thiazin-4a(5H)-yl)-4-fluorophenyl)-5-methoxy-3-methyl-2-pyridinecarboxamide]: in data set [1] (rat CSF), the “% reduction of rat CSF levels at 10pmk” value was determined as 31%. The “% reduction of rat brain levels at 10mpk” value in data set [1] (rat brain) came to 1%. Besides, the IC50 in data set [2] (Homo sapiens, HEK293, average IC50, cell assay) is 11.7 nM; on Cathepsin D (Cat D), 144000 nM.
Regarding `C[C@@]1(c2cc(Br)cnc2F)CS(=O)(=O)C2(CC2)C(N)=N1` [Example 455, (6R)-6-(5-bromo-2-fluoro-3-pyridinyl)-6-methyl-4-thia-7-azaspiro[2.5]oct-7-en-8-amine 4,4-dioxide], the IC50 in data set [3] (average IC50) is 12500 nM; in data set [2] (setting [6]), > 15600 nM; at Cathepsin D (Cat D), 100000 nM.
With `CC1(C)C(N)=N[C@](CF)(c2cc(N)ccc2F)CS1(=O)=O` [Example 456, (5S)-5-(5-amino-2-fluorophenyl)-5-(fluoromethyl)-2,2-dimethyl-5,6-dihydro-2H-1,4-thiazin-3-amine 1,1-dioxide], the results for the IC50 (in data set [3] (average IC50); in data set [2] (setting [6]); at Cathepsin D (Cat D)) were 2530 nM, > 15600 nM and 228000 nM, respectively.
For `COc1ccc(C(=O)Nc2ccc(F)c([C@]3(CF)CS(=O)(=O)C(C)(C)C(N)=N3)c2)nc1` [Example 457, N-(3-((3S)-5-amino-3-(fluoromethyl)-6,6-dimethyl-1,1-dioxido-3,6-dihydro-2H-1,4-thiazin-3-yl)-4-fluorophenyl)-5-methoxy-2-pyridinecarboxamide], in that order: 0.65 nM, 12.9 nM and 812000 nM.
For `COCc1cc(Cl)cnc1C(=O)Nc1ccc(F)c([C@]2(CF)CS(=O)(=O)C(C)(C)C(N)=N2)c1` [Example 458, N-(3-((3S)-5-amino-3-(fluoromethyl)-6,6-dimethyl-1,1-dioxido-3,6-dihydro-2H-1,4-thiazin-3-yl)-4-fluorophenyl)-5-chloro-3-(methoxymethyl)-2-pyridinecarboxamide], the IC50 is 0.9 nM in data set [3] (average IC50), 23.9 nM in data set [2] (setting [6]) and 499000 nM on Cathepsin D (Cat D).
As to `CC1[C@@](C)(c2cc(Br)ccc2F)N=C(N)[C@](C)(F)S1(=O)=O` (stereo partly drawn) [Example 459, (2R,5R)-5-(5-bromo-2-fluorophenyl)-2-fluoro-2,5,6-trimethyl-5,6-dihydro-2H-1,4-thiazin-3-amine 1,1-dioxide], the IC50 is 2300 nM in data set [3] (average IC50), 5470 nM in data set [2] (setting [6]) and > 400000 nM at Cathepsin D (Cat D).
With `C[C@@]1(c2cc(-c3cncnc3)c(F)cc2F)CCSC(N)=N1` [LY2811376, (S)-4-(2,4-difluoro-5-pyrimidin-5-yl-phenyl)-4-methyl-5,6-dihydro-4H-[1,3]thiazin-2-ylamine], the “safety and tolerability in healthy volunteers” value with Aβ in lumbar CSF is “safe and well tolerated”.
As for `C[C@@]1(c2cc(-c3cncnc3)c(F)cc2F)CCSC(N)=N1` [LY 2811376], the “eye assessments of Ph I subjects” value in data set [4] is on record as “did not show any abnormalities”. Further, the rat toxicology finding entry in data set [5] is on record as “damaged the pigment epithelium of the rat's eye”.
For the molecule “N-(3-((4aR,7aR)-3-amino-2,2-dimethyl-1,1-dioxido-7,7a-dihydro-2H-furo[3,4-b][1,4]thiazin-4a(5H)-yl)-4-fluorophenyl)-5-(difluoromethoxy)-3-methyl-2-pyridinecarboxamide, N-(3-((4aS,7aS)-3-amino-2,2-dimethyl-1,1-dioxido-7,7a-dihydro-2H-furo[3,4-b][1,4]thiazin-4a(5H)-yl)-4-fluorophenyl)-5-(difluoromethoxy)-3-methyl-2-pyridinecarboxamide [Example 413]”, the IC50 was found to be 2.65 nM in data set [3], 10.3 nM in data set [2] and 111000 nM on Cathepsin D (Cat D).
“N-(3-((4aR,7aS)-3-amino-2,2-dimethyl-1,1-dioxido-7,7a-dihydro-2H-furo[3,4-b][1,4]thiazin-4a(5H)-yl)-4-fluorophenyl)-3-chloro-1,7-naphthyridin-8-amine, N-(3-((4aS,7aR)-3-amino-2,2-dimethyl-1,1-dioxido-7,7a-dihydro-2H-furo[3,4-b][1,4]thiazin-4a(5H)-yl)-4-fluorophenyl)-3-chloro-1,7-naphthyridin-8-amine [Example 429]”: the IC50 was found to be 4.6 nM in data set [3] (average IC50, enzyme assay); 157 nM in data set [2] (average IC50, cell assay); 131000 nM on Cathepsin D (Cat D).
Take “N-(3-((4aR,7aS)-3-amino-2,2-dimethyl-1,1-dioxido-7,7a-dihydro-2H-furo[3,4-b][1,4]thiazin-4a(5H)-yl)-4-fluorophenyl)-5-chloro-2-pyridinecarboxamide, N-(3-((4aS,7aR)-3-amino-2,2-dimethyl-1,1-dioxido-7,7a-dihydro-2H-furo[3,4-b][1,4]thiazin-4a(5H)-yl)-4-fluorophenyl)-5-chloro-2-pyridinecarboxamide [Example 426]”: the IC50 was found to be 1.5 nM in data set [3] (average IC50, enzyme assay); 13.6 nM in data set [2] (average IC50, cell assay); 170000 nM on Cathepsin D (Cat D).
As for “N-(3-((4aR,7aS)-3-amino-2,2-dimethyl-1,1-dioxido-7,7a-dihydro-2H-furo[3,4-b][1,4]thiazin-4a(5H)-yl)-4-fluorophenyl)-5-chloro-3-methyl-2-pyridinecarboxamide, N-(3-((4aS,7aR)-3-amino-2,2-dimethyl-1,1-dioxido-7,7a-dihydro-2H-furo[3,4-b][1,4]thiazin-4a(5H)-yl)-4-fluorophenyl)-5-chloro-3-methyl-2-pyridinecarboxamide [Example 427]”, the IC50 turned out to be 1 nM in data set [3] (average IC50, enzyme assay); 33 nM in data set [2] (average IC50, cell assay); 220000 nM on Cathepsin D (Cat D).
With “N-(3-((4aR,7aS)-3-amino-2,2-dimethyl-1,1-dioxido-7,7a-dihydro-2H-furo[3,4-b][1,4]thiazin-4a(5H)-yl)-4-fluorophenyl)-5-methoxy-3-methyl-2-pyridinecarboxamide, N-(3-((4aS,7aR)-3-amino-2,2-dimethyl-1,1-dioxido-7,7a-dihydro-2H-furo[3,4-b][1,4]thiazin-4a(5H)-yl)-4-fluorophenyl)-5-methoxy-3-methyl-2-pyridinecarboxamide [Example 428]”, the IC50 in data set [3] (average IC50, enzyme assay) was found to be 9.71 nM; in data set [2] (average IC50, cell assay) it was 37.3 nM; on Cathepsin D (Cat D) it was 309000 nM.
As for “N-(3-((7R)-9-amino-7-(fluoromethyl)-5,5-dioxido-5-thia-8-azaspiro[3.5]non-8-en-7-yl)-4-fluorophenyl)-3-chloro-1,7-naphthyridin-8-amine, N-(3-((7S)-9-amino-7-(fluoromethyl)-5,5-dioxido-5-thia-8-azaspiro[3.5]non-8-en-7-yl)-4-fluorophenyl)-3-chloro-1,7-naphthyridin-8-amine [Example 243]”, the IC50 in data set [3] (average IC50, enzyme assay) turned out to be 1.31 nM; in data set [2] (average IC50, cell assay), 77.9 nM; at Cathepsin D (Cat D), 363000 nM.
Take “N-(3-((7R)-9-amino-7-(fluoromethyl)-5,5-dioxido-5-thia-8-azaspiro[3.5]non-8-en-7-yl)-4-fluorophenyl)-5-(difluoromethoxy)-3-methyl-2-pyridinecarboxamide, N-(3-((7S)-9-amino-7-(fluoromethyl)-5,5-dioxido-5-thia-8-azaspiro[3.5]non-8-en-7-yl)-4-fluorophenyl)-5-(difluoromethoxy)-3-methyl-2-pyridinecarboxamide [Example 410]”: the IC50 was determined as 2.3 nM in data set [3], 11.9 nM in data set [2] and 170000 nM on Cathepsin D (Cat D).
